Laboratory results as given in US9616101B2, “Differentiation marker and differentiation control of eye cell” (Kyoto Prefectural Public University Corporation, priority 2012, dated 2017).
Entries after “also recorded” stand apart in the source; their conditions may differ.

B1: RSPO3: human recombinant R-spondin 3, R&D systems catalog No. 3500-RS (protein, listed as Homo sapiens)
chain: MHLRLISWLFIILNFMEYIGSQNASRGRRQRRMHPNVSQGCQGGCATCSDYNGCLSCKPRLFFALERIGMKQIGVCLSSCPSGYYGTRYPDINKCTKCKADCDTCFNKNFCTKCKSGFYLHLGKCLDNCPEGLEANNHTMECVSIVHCEVSEWNPWSPCTKKGKTCGFKRGTETRVREIIQHPSAKGNLCPPTNETRKCTVQRKKCQKGERGKKGRERKRKKPNKGESKEAIPDSKSLESSKEIPEQRENKQQQKKRKVQDKQKSVSVSTVH
B2: RSPO2: human recombinant R-spondin 2, R&D systems catalog No. 3266-RS (protein, listed as Homo sapiens)
chain: MQFRLFSFALIILNCMDYSHCQGNRWRRSKRASYVSNPICKGCLSCSKDNGCSRCQQKLFFFLRREGMRQYGECLHSCPSGYYGHRAPDMNRCARCRIENCDSCFSKDFCTKCKVGFYLHRGRCFDECPDGFAPLEETMECVEGCEVGHWSEWGTCSRNNRTCGFKWGLETRTRQIVKKPVKDTILCPTIAESRRCKMTMRHCPGGKRTPKAKEKRNKKKKRKLIERAQEQHSVFLATDRANQ
B3: RSPO4: human recombinant R-spondin 4, R&D systems catalog No. 4575-RS (protein, UniProt Q2I0M5 20-234, looked up)
R-spondin-4: LNRRKKQVGTGLGGNCTGCIICSEENGCSTCQQRLFLFIRREGIRQYGKCLHDCPPGYFGIRGQEVNRCKKCGATCESCFSQDFCIRCKRQFYLYKGKCLPTCPPGTLAHQNTRECQGECELGPWGGWSPCTHNGKTCGSAWGLESRVREAGRAGHEEAATCQVLSESRKCPIQRPCPGERSPGQKKGRKDRRPRKDRKLDRRLDVRPRQPGLQP

Legend:
Type in all cases: cell-based
GPR49/LGR5 expression [1] = test: GPR49/LGR5 expression in human corneal tissue treated with Hedgehog signal modulators; conditions: 100 ng/ml rhShh, 10 μM purmorphamine, 10 μM cyclopamine, 3 days
Text: (§1) A corneal tissue was embedded with OCT compound (catalog No.: 4583; Sakura Finetek, Tokyo, Japan), and frozen in liquid nitrogen to prepare a frozen corneal tissue section. The frozen block was sliced to 8 μm, applied on a silane-coating slide, and air-dried. For preparing the whole tissue section, a Descemet's membrane containing a corneal endothelial cell was peeled from a corneal tissue, allowed to stand in ice-cooled 100% acetone for 30 seconds, applied on a silane-coating slide, and air-dried. As a cultured corneal endothelial cell, a cell cultured on a LabTek 8-well plastic chamber slide was used. Ice-cooled 100% acetone was added to a corneal tissue and the cultured cell, the resultant was allowed to stand at 4° C. for 15 minutes to fix the cell. After shaking and washing with 0.15% TritonX/PBS-, 1% bovine serum albumin (catalog No.: A4503BSA; Sigma-Aldrich, St. Louis, Mo.) was added, and allowed to stand at room temperature for 30 minutes to perform blocking. A primary antibody was diluted with 1% BSA, and incubated at room temperature for 1 hour. As a primary antibody to be used, anti-rabbit GPR49/LGR5 (catalog No.: GTX71143; 1: 200; GeneTex Inc., San Antonio, Tex.), anti-rabbit Nestin (catalog No.: PRB-570C; 1: 200; COVANCE, Berkeley, Calif.), anti-mouse ABCG2 (catalog No.: NC_236; 1: 2; Kamiya biomedical CO., Seattle, Wash. USA), anti-mouse Ki-67 (catalog No.: 556003; 1: 200 BD Pharmingen™ NJ, USA), anti-rabbit Na^+/K^+ ATPase (catalog No.: A132; 1: 100; Zymed), and anti-rabbit ZO1 (Zymed Laboratries Inc., South San Francisco, Calif.) were used. The resultant was washed with 0.15% Triton/PBS- twice, and PBS- once.
For extracting RNA from a corneal tissue and a cultured cell, RNeasy Mini Kit (catalog No.: 74106; QIAGEN, Valencia, Calif.) was used. Added was 1 μl of OligodT Primer (catalog No.: 18418-020; Invitrogen) per 1 μg of the extracted RNA, and the resultant was incubated at 70° C. for 2 minutes, and immediately ice-cooled. […] The resulting data were analyzed by ABI PRISM (registered trademark) 7000 Sequence Detection System. […]

[2] = test system: cultured human corneal endothelial cell; test: Ki-67 immunostaining and cell morphology of cultured human corneal endothelial cell treated with Hedgehog signal modulators; conditions: primary human corneal endothelial cell, 2 μM cyclopamine, 3 days; for Ki-67 expression (cell proliferation) as compared with a control: 100 ng/ml rhShh, 2 μM purmorphamine
Experimental: (§2) After 3 days, immunostain of GPR49/LGR5 and Ki-67 was performed. In addition, RNA of a corneal endothelial cell incubated under the same conditions was extracted, and the amount of expression of mRNA was measured by real time PCR.

GPR49/LGR5 expression [3] = test: GPR49/LGR5 expression in cultured human corneal endothelial cell treated with Hedgehog signal modulators; conditions: primary human corneal endothelial cell; 100 ng/ml rhShh, 2 μM purmorphamine, 2 μM cyclopamine; 3 days
Experimental: as §2

[4] = test system: human corneal endothelial cell; test: Ki67 immunostaining of human corneal endothelial cells incubated with RSPO1 to 4
Text: as §1
A secondary antibody was diluted with a mixed solution of 1% BSA and 0.15% TrironX/PBS-, and incubated at room temperature for 30 minutes. As a secondary antibody to be used, Alexa™ Fluor 488-labeled (conjugated) goat anti-rabbit IgG (catalog No.: A11034; 1: 1500; Molecular Probe-Invitrogen) and Alexa™ Fluor 488-labeled (conjugated) goat anti-mouse IgG (catalog No.: A11029; 1: 1500; Molecular Probe-Invitrogen) were used. The secondary antibody was shaken and washed with 0.15% Triton/PBS- twice, and PBS- once, subjected to nuclear staining with propidium iodide (catalog No.: SP29004-41; PI; Nacalai Tesque, Inc. Kyoto, Japan), and embedded while covered with a cover glass.
In order to investigate a relationship between R-sporadin 1 (RSPO1), R-spondin 2 (RSPO2), R-spondin 3 (RSPO3), or R-spondin 4 (RSPO4) and differentiation of a corneal endothelial cell, the relationship was studied using RSPO1. Reagents used are as follows. • RSPO1 R&D systems catalog No.: 4645-RS • RSPO2 R&D systems catalog No.: 3266-RS • RSPO3 R&D systems catalog No.: 3500-RS • RSPO4 R&D systems catalog No.: 4575-RS
Then, for the purpose of investigating the influence of RSPO on cell proliferation, RSPO1 to 4 were incubated into a human corneal endothelial cell under conditions of 37° C. and 5% CO2 for 1 day. Thereafter, Ki-67 being a cell proliferation marker was immunostained.

Molecule	expression of GPR49/LGR5 as compared with a control (immunostaining; same result at the mRNA expression level) (GPR49/LGR5 expression [1])	Ki-67 expression (cell proliferation) as compared with a control [2]	further results
c1ccc2c(Oc3nc(Nc4ccc(N5CCOCC5)cc4)c4ncn(C5CCCCC5)c4n3)cccc2c1 [purmorphamine, N-(4-morpholinophenyl)-2-(1-naphthyloxy)-9-cyclohexyl-9H-purine-6-amine]	remarkable increase (upregulation)	elevated; also recorded: upregulated	–
CC1=C2C[C@H]3[C@@H](CC=C4C[C@@H](O)CC[C@@]43C)[C@@H]2CC[C@]12O[C@@H]1C[C@H](C)CN[C@H]1[C@H]2C [cyclopamine]	clear expression suppression	suppression of cell proliferation; also recorded: not upregulated	cell morphology [2]: abnormality of cell morphology; also recorded: could not maintain a normal hexagonal form
rhShh: recombinant human Sonic hedgehog, ligand of the Hedgehog pathway binding to Ptch1	remarkable increase (upregulation)	elevated	cell expressing GPR49/LGR5 (GPR49/LGR5 expression [3]): confirmed; Ki-67 expression (cell proliferation) as compared with a control ([2]; listed as SHH): upregulated
B1	–	–	Ki67-positive cell rate as compared with a control ([4]; RSPO3 50 ng/ml, 200 ng/ml (FIG. 13)): slightly increased
B2	–	–	Ki67-positive cell rate as compared with a control ([4]; RSPO2 50 ng/ml, 100 ng/ml (FIG. 12)): slightly increased
B3	–	–	Ki67-positive cell rate as compared with a control ([4]; RSPO4 50 ng/ml, 500 ng/ml (FIG. 14)): slightly increased
